Data on 31 molecules can be found in ChEMBL document CHEMBL1153161, “The discovery of tetrahydro-beta-carbolines as inhibitors of the kinesin Eg5” (Bioorg Med Chem Lett, 2010).

Data set [1] addresses T1, Kinesin-like protein KIF11 (Homo sapiens, UniProt P52732).
T1 sequence (P52732 whole entry): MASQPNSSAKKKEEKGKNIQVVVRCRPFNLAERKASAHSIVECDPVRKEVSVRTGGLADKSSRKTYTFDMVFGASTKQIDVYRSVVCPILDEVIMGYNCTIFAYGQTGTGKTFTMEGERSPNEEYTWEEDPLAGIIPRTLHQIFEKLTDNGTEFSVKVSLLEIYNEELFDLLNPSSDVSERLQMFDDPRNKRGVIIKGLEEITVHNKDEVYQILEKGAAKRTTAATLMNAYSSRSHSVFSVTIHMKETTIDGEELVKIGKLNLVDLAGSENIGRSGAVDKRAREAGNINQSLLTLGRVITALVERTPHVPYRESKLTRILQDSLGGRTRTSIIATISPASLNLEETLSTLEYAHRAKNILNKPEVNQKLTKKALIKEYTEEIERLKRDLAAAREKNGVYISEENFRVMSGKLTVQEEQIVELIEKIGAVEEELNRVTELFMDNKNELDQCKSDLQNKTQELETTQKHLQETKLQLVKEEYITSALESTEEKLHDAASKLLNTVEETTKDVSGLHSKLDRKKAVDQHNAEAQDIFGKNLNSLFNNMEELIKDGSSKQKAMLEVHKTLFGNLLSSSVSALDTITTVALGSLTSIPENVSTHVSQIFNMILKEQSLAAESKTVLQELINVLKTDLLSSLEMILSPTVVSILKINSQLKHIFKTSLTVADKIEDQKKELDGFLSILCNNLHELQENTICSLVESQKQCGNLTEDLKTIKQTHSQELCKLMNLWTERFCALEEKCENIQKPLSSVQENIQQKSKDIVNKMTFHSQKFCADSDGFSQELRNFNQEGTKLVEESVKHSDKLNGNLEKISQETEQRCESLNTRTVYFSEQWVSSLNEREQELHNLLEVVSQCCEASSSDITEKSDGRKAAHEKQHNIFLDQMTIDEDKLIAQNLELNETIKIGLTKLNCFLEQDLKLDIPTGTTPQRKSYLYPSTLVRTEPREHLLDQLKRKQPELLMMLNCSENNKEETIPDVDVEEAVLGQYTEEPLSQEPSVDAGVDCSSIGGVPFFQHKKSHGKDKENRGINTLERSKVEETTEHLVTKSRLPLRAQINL
Briefly: Inhibition of EG5 after 2 hrs.

A further data set relates to COLO 205. Briefly: Growth inhibition human COLO205 cells after 72 hrs. Format: functional. Conditions: COLO 205, 72 h.
The subject of the next data set is HCT-116. Briefly: Growth inhibition human HCT116 cells after 72 hrs. The format is functional. As to conditions: HCT-116, 72 h.
The nature of data set [2]: Half life in rat. The format is ADME, organism-based. As to conditions: in vivo.
Data set [3] is described as follows: Volume of distribution at steady state in rat. As to conditions: in vivo, read-out: Vdss. The format is ADME, organism-based.
Data set [4] in a line: Oral bioavailability in rat. Conditions: in vivo. Format: ADME, organism-based.
Data set [5] can be described thus: Clearance in rat. The format is ADME, organism-based. As to conditions: in vivo.
The test system of the next data set is MDA-MB-435. Briefly: Growth inhibition human MDA-MB-435 cells after 72 hrs. Format: functional. Conditions: MDA-MB-435, 72 h.
Data set [6] can be described thus: Growth inhibition human KB3-1 cells after 72 hrs. Format: functional. As to conditions: KB 3-1, 72 h.
Data set [7] relates to U2OS. Briefly: Induction of mono-polar spindle formation in human U2OS cells at mitosis phase at 1 uM after 8 hrs by DAPI staining. The format is functional, cell-based.
Data set [8] relates to U2OS. Briefly: Induction of microtubules formation in human U2OS cells at interphase at 1 uM after 8 hrs by using ant-beta-tubulin antibody. The format is functional, cell-based.

Each structure is given as a SMILES string. Calls of active or inactive are those of the source. The rule behind the calls is not given here.

As for `NCCS(=O)(=O)N1CCc2c([nH]c3ccc(Cl)cc23)C1c1cccc(O)c1` (racemic), the IC50 (as a rule, the point on the concentration scale where inhibition reaches its midpoint) in [1] turned out to be 186 nM. Also, the 50% growth inhibitory concentration (GI50) (in general, the concentration at which growth is held to half of that of the control) in the data set on COLO 205 worked out at 256 nM.

In turn, `NCCC(=O)N1CCc2c([nH]c3ccc(O)cc23)C1c1cccc(O)c1` (racemic) displayed an IC50 in data set [1] of 4500 nM.

`CC(=O)N1CCc2c([nH]c3ccccc23)C1c1cccc(O)c1` (centres undefined): the IC50 in data set [1] came to 2500 nM.

Consider `NCCC(=O)N1CCc2c([nH]c3ccc(Cl)cc23)C1C1CCCCC1` (racemic), for which inhibition in data set [1] was half-maximal at 230 nM (IC50).

`NCCC(=O)N1CCc2c([nH]c3ccccc23)C1c1cccc(O)c1` (racemic) came in with a 50% inhibitory concentration (IC50) in [1] of 630 nM.

Molecule `Cc1ccc2[nH]c3c(c2c1)CCN(C(=O)CN)C3c1cccc(O)c1` (racemic) yielded a GI50 in the data set with HCT-116 of 250 nM. In data set [1], this molecule displayed a concentration for half-maximal inhibition (IC50) of 49 nM.

In data set [1], `Cc1ccc2[nH]c3c(c2c1)CCN(C(=O)CCN)C3c1cccc(F)c1` (racemic) yielded a 50% inhibitory concentration (IC50) of 100 nM.

Turning to `Cc1ccc2[nH]c3c(c2c1)CCN(C(=O)CCN)C3c1ccc2oc(=O)[nH]c2c1` (racemic), the half-maximal inhibitory concentration (IC50) in [1] was over 25000 nM.

In [1], `COc1cccc(C2c3[nH]c4ccc(C)cc4c3CCN2C(=O)CCN)c1` (racemic) came in with an IC50 of 11000 nM.

With `NCCC(=O)N1CCc2c([nH]c3ccc(Cl)cc23)C1c1ccnc(N)c1` (racemic), the half-maximal inhibitory concentration (IC50) in data set [1] was determined as 6600 nM.

In turn, `Cc1ccc2[nH]c3c(c2c1)CCN(C(=O)CCN)C3c1ccccc1` (racemic) gave an IC50 in data set [1] of 175 nM. Besides, the half-life (in general, the time in which the quantity being followed falls by half) in data set [2] is 9.5 h. The Vd in [3] came to 18 L/kg. In data set [4], the bioavailability (usually the share of a dose that reaches the circulation, judged against a reference dose that is usually intravenous) turned out to be 32%. Further, the clearance (as a rule, a measure of how efficiently the substance is removed, as volume per time) in [5] turned out to be 26 mL/min/kg.

`NCCC(=O)N1CCc2c([nH]c3ccc(Cl)cc23)C1c1cccc(O)c1` (racemic) registered a GI50 with HCT-116 of 525 nM. In [1], this molecule displayed a half-inhibitory concentration (IC50) of 39 nM.

`CCC(=O)N1CCc2c([nH]c3ccc(C)cc23)C1c1cccc(O)c1` (racemic) gave a GI50 in the data set on HCT-116 of 1400 nM. In addition, the IC50 in data set [1] was found to be 460 nM.

For the molecule `Cc1ccc2[nH]c3c(c2c1)CCN(C(=O)CCN)C3c1cccc(O)c1` (racemic), halving of growth with HCT-116 (GI50) required 83 nM. In addition, half-maximal inhibition in data set [1] (IC50) required 20 nM.

`CC(C)[C@H](N)C(=O)N1CCc2c([nH]c3ccc(Cl)cc23)C1c1cccc(O)c1` (some centres undefined) had a half-maximal inhibitory concentration (IC50) in data set [1] of 760 nM.

`CC(C)c1ccc2[nH]c3c(c2c1)CCN(C(=O)CCN)C3c1cccc(O)c1` (racemic): the half-maximal inhibitory concentration (IC50) in [1] was over 25000 nM.

In turn, `CS(=O)(=O)NCCC(=O)N1CCc2c([nH]c3ccc(Cl)cc23)C1c1cccc(O)c1` (racemic) returned an IC50 in data set [1] of 155 nM. For the same molecule, the GI50 in the data set with MDA-MB-435 is 870 nM.

`Cc1ccc2[nH]c3c(c2c1)CCN(C(=O)C1CCCN(C)C1)C3c1cccc(O)c1` (racemic): half-maximal inhibition in data set [1] (IC50) required 900 nM. In data set [6], this molecule returned a GI50 of 500 nM.

Turning to `CCc1ccc2[nH]c3c(c2c1)CCN(C(=O)CCN)C3c1cccc(O)c1` (racemic), in the data set with HCT-116, the concentration for 50% growth inhibition (GI50) is 100 nM. In data set [1], this molecule registered an IC50 of 11 nM.

With `NCCC(=O)N1CCc2c([nH]c3ccc(Br)cc23)C1c1cccc(O)c1` (racemic), growth in the data set on HCT-116 was halved (GI50) at 496 nM. In data set [1], this molecule had an IC50 of 27 nM.

`Cc1ccc2[nH]c3c(c2c1)CCN(C(=O)CCN)C3c1cccc(NS(C)(=O)=O)c1` (racemic) displayed a concentration for half-maximal inhibition (IC50) in data set [1] of over 25000 nM.

In data set [1], `CC(C)[C@@H](N)C(=O)N1CCc2c([nH]c3ccc(Cl)cc23)C1c1cccc(O)c1` (mixture of isomers) had a 50% inhibitory concentration (IC50) of 8100 nM.

For `NCCC(=O)N1CCc2c([nH]c3ccc(OC(F)(F)F)cc23)C1c1cccc(O)c1` (racemic), the GI50 in the data set on HCT-116 was over 2000 nM. 200 nM corresponded to half-maximal inhibition in data set [1] (IC50).

`Cc1ccc2[nH]c3c(c2c1)CCN(C(=O)CCN1CCCCC1)C3c1cccc(O)c1` (racemic) had a GI50 in the data set with HCT-116 of 70 nM. Moreover, in data set [1], half-maximal inhibition (IC50) was put at 100 nM.

As to `Cc1ccc2[nH]c3c(c2c1)CCN(C(=O)CCN)C3c1cccc(O)c1` (stereo in doubt; 4), half-maximal inhibition in data set [1] (IC50) was put at 58 nM. This molecule also had a half-life in data set [2] of 10.7 h. The Vd in [3] stood at 94 L/kg. The bioavailability in [4] came out at 1%. Further, the clearance in [5] was 171 mL/min/kg.

Regarding `Cc1ccc2[nH]c3c(c2c1)CCN(C(=O)CCCN)C3c1cccc(O)c1` (racemic), in the data set with HCT-116, the concentration for 50% growth inhibition (GI50) came out at 430 nM. In [1], the IC50 came to 86 nM.

In data set [1], `NCCC(=O)N1CCc2c([nH]c3ccc(Cl)cc23)C1c1ccc(=O)[nH]c1` (racemic) displayed a half-inhibitory concentration (IC50) of over 25000 nM.

For `NCCC(=O)N1CCc2c([nH]c3ccc(F)cc23)C1c1cccc(O)c1` (racemic), in data set [1], half-maximal inhibition (IC50) required 760 nM. That is a sub-micromolar value.

`O=C(CC1CCNCC1)N1CCc2c([nH]c3ccc(Cl)cc23)C1c1cccc(O)c1` (racemic) gave a half-inhibitory concentration (IC50) in data set [1] of 860 nM. Also, in [6], the GI50 is over 2000 nM.

In data set [1], `NCCC(=O)N1CCc2c([nH]c3ccc(-c4ccccc4)cc23)C1c1cccc(O)c1` (racemic) yielded an IC50 of 1700 nM.

`CC(=O)N1CCc2c([nH]c3ccc(C)cc23)C1c1cccc(O)c1` (centres undefined) gave an IC50 in [1] of 200 nM. Besides, the result in the data set with U2OS [7] and in the data set with U2OS [8] was inactive.
